Tests used:
Brain [1] = assay: Stability in Sprague-Dawley rat brain assessed as polar radioactive metabolite level at 15 to 120 MBq, iv after 3 mins; type: ADME, organism-based; conditions: in vivo, 0.05 h
[2] = Stability in Sprague-Dawley rat brain assessed as unchanged parent compound level at 15 to 120 MBq, iv after 3 mins; type: ADME, organism-based; conditions: read-out: Stability
Brain [3] = assay: Drug uptake in Sprague-Dawley rat brain at 15 to 120 MBq, iv after 60 mins; type: ADME, organism-based; conditions: in vivo, 1 h
Brain [4] = assay: Drug uptake in Sprague-Dawley rat brain at 15 to 120 MBq, iv after 3 mins; type: ADME, organism-based; conditions: in vivo, 0.05 h
[5] = Stability in Sprague-Dawley rat brain assessed as unchanged parent compound level at 15 to 120 MBq, iv after 60 mins; type: ADME, organism-based; conditions: read-out: Stability
[6] = Stability in Sprague-Dawley rat blood at 10 MBq assessed as radioactive compound recovery; type: ADME, tissue-based; conditions: whole blood, read-out: Stability
Brain [7] = assay: Stability in Sprague-Dawley rat brain assessed as polar radioactive metabolite level at 15 to 120 MBq, iv after 60 mins; type: ADME, organism-based; conditions: in vivo, 1 h

Compound: [11CH3]N1C=C(C(=O)NC(=N)NCc2cccc(I)c2)Cc2ccccc21
- Activity (Brain [1]): 4%
- remaining at 0.05 h [2]: 96%
- Drug uptake (Brain [3]): 0.06 % ID/g
- Drug uptake (Brain [4]): 0.1 % ID/g
- remaining at 1 h [5]: 59%
- remaining at 10 MBq [6]: > 90%
- Activity (Brain [7]): 41%
